According to patent US11459336B2, “Pyrazine carbamates and their use as GluN2B receptor modulators” (JANSSEN PHARMACEUTICA NV, priority 2019, dated 2022):

target: T1, human GluN1/GluN2B NMDA receptors (Homo sapiens, UniProt Q13224); test: Calcium flux (FLIPR) assay on cloned human GluN1/GluN2B ion channels expressed in mammalian cells, standard assay; type: cell-based; conditions: glutamate ~EC40, 10 μM glycine, stable cell line with Tet-On induced expression
T1 construct: expressed in transfected cells
T1 sequence (Q13224 27-1484, other chains not shown): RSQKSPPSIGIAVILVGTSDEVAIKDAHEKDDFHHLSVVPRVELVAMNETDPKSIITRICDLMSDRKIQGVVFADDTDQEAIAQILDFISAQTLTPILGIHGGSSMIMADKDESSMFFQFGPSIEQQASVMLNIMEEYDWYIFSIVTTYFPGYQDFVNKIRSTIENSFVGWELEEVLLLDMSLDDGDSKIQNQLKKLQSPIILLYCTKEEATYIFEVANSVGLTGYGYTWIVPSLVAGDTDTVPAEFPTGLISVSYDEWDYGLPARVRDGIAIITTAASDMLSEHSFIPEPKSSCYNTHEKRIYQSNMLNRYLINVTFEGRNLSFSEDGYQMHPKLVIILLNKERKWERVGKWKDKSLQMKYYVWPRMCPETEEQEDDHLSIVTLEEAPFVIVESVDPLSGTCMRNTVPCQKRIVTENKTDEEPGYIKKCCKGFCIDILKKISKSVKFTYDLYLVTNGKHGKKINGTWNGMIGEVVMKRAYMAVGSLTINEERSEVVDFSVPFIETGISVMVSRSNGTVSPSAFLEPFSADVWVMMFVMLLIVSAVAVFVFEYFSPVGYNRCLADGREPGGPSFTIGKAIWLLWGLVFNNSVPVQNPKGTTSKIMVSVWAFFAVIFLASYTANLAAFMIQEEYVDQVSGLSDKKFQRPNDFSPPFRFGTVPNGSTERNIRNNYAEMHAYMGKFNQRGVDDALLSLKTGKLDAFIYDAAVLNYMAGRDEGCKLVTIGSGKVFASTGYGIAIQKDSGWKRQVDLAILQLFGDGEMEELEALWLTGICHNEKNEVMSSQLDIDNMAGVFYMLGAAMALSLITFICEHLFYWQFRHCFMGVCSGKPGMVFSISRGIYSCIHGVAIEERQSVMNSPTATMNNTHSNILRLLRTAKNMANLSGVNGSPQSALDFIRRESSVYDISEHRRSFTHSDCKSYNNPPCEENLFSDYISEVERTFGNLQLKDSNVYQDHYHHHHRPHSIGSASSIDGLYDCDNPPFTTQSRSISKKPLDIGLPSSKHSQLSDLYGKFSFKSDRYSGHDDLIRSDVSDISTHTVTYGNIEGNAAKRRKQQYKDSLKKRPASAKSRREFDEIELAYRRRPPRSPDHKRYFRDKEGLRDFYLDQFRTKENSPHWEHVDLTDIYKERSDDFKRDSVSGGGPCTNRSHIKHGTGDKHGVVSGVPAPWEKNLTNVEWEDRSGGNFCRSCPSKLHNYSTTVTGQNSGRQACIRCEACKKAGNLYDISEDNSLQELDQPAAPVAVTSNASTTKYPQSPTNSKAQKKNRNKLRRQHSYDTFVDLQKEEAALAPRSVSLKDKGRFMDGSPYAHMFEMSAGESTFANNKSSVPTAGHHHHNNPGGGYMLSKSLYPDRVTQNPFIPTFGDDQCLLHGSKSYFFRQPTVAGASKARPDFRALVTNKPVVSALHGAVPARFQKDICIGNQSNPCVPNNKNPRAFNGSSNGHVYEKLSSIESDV
Method: (§1) NMDA receptors are ion channels that are highly permeable to Ca^2+ ions, rendering it possible to monitor NMDA receptor function using cell-based calcium flux assay. In this assay, co-agonists glutamate and glycine are added to cells heterologously expressing human GluN1/GluN2B NMDA receptors to initiate cellular Ca^2+ influx. The time course of the changes in intracellular calcium is measured using a fluorescent dye and a FLIPR (Fluorometric Imaging Plate Reader) device.
(§2) Twenty four hours before measurements, the expression of the NMDA receptors in the stable cell line is induced with Tet-On inducible system in the presence of a non-selective NMDA receptor blocker. On the day of the experiment, cell culture media is carefully washed and the cells are loaded with Calcium 5 Dye Kit (Molecular Devices) in dye loading buffer containing 137 mM NaCl, 4 mM KCl, 2 mM CaCl2, 0.5 mM MgCl2 (standard assay) or 1.5 mM MgCl2 (HTS assay), 10 mM HEPES and 5 mM D-glucose; pH 7.4. After 1 h incubation at the room temperature, the dye is washed away with the assay buffer (137 mM NaCl (standard assay) or 150 mM (HTS assay), 4 mM KCl (standard assay) or 3 mM (HTS assay), 2 mM CaCl2, 0.01 mM EDTA, 10 mM HEPES and 5 mM D-glucose; pH 7.4) In the FLIPR TETRA reader, various concentrations of the test compounds are added to the cells for 5 min while fluorescence is monitored to detect potential agonist activity. Next, co-agonists, glutamate and glycine are added for another 5 minutes. The concentration of glutamate corresponding to ˜EC40 (standard assay) or EC40 (HTS assay) is used to maximize the assay's signal window and ability to detect NMDA receptor antagonists and negative allosteric modulators. A saturating concentration (10 μM) of glycine is also present in the assay. A non-selective NMDA receptor antagonist, (+)MK-801 is used as a positive control for antagonist activity. The fluorescent signal in the presence of test compounds is quantified and normalized to the signal defined by the appropriate control wells.

Row | IC50 [nM] | SMILES
1 | 203 | Cc1ncc(-c2cccc(C(C)(F)F)c2)nc1CN1CC2(CC2)OC1=O [Example 43, 5-[[6-[3-(1,1-Difluoroethyl)phenyl]-3-methyl-pyrazin-2-yl]methyl]-7-oxa-5-azaspiro[2.4]heptan-6-one]
2 | 44 | C[C@@H]1COC(=O)N1Cc1cncc(-c2ccc(F)c(OC(F)F)c2)n1 [Example 18, (4R)-3-[[6-[3-(Difluoromethoxy)-4-fluoro-phenyl]pyrazin-2-yl]methyl]-4-methyl-oxazolidin-2-one]
3 | 19 | O=C1OC2(CC2)CN1Cc1cncc(-c2ccc(F)c(OC(F)F)c2)n1 [Example 16, 5-[[6-[3-(Difluoromethoxy)-4-fluoro-phenyl]pyrazin-2-yl]methyl]-7-oxa-5-azaspiro[2.4]heptan-6-one]
4 | 605 | Cc1ncc(-c2ccc(F)c(C(F)F)c2)nc1CN1C(=O)OC[C@@H]1C [Example 12, (4S)-3-[[6-[3-(Difluoromethyl)-4-fluoro-phenyl]-3-methyl-pyrazin-2-yl]methyl]-4-methyl-oxazolidin-2-one]
5 | 530 | O=C1OC2(CNC2)CN1Cc1cncc(-c2ccc(Cl)c(OC(F)F)c2)n1 [Example 67, 6-[[6-[4-Chloro-3-(difluoromethoxy)phenyl]pyrazin-2-yl]methyl]-8-oxa-2,6-diazaspiro[3.4]octan-7-one]
6 | > 3000 | Cc1ncc(-c2cccc(C(C)(F)F)c2)nc1CN1CC(C)(C)OC1=O [Example 44, 3-[[6-[3-(1,1-Difluoroethyl)phenyl]-3-methyl-pyrazin-2-yl]methyl]-5,5-dimethyl-oxazolidin-2-one]
7 | 60 | C[C@H]1CN(Cc2cncc(-c3ccc(F)c(C(F)F)c3)n2)C(=O)O1 [Example 6, (5S)-3-[[6-[3-(Difluoromethyl)-4-fluoro-phenyl]pyrazin-2-yl]methyl]-5-methyl-oxazolidin-2-one]
8 | 195 | O=C1OCCN1Cc1cncc(-c2ccc(F)c(C(F)F)c2)n1 [Example 1, 3-[[6-[3-(Difluoromethyl)-4-fluoro-phenyl]pyrazin-2-yl]methyl]oxazolidin-2-one]
9 | 74 | Cc1ncc(-c2ccc(F)c(OC(F)F)c2)nc1CN1CCC2(CC2)OC1=O [Example 54, 6-[[6-[3-(Difluoromethoxy)-4-fluoro-phenyl]-3-methyl-pyrazin-2-yl]methyl]-8-oxa-6-azaspiro[2.5]octan-7-one]
10 | 19 | O=C1OC2(CC2)CN1Cc1cncc(-c2ccc(Cl)c(OC(F)F)c2)n1 [Example 29, 5-[[6-[4-Chloro-3-(difluoromethoxy)phenyl]pyrazin-2-yl]methyl]-7-oxa-5-azaspiro[2.4]heptan-6-one]
11 | 18 | Cc1ncc(-c2ccc(Cl)c(OC(F)F)c2)nc1CN1CCCOC1=O [Example 37, 3-[[6-[4-Chloro-3-(difluoromethoxy)phenyl]-3-methyl-pyrazin-2-yl]methyl]-1,3-oxazinan-2-one]
12 | 52 | Cc1ncc(-c2ccc(F)c(OC(F)F)c2)nc1CN1C[C@@H](C)OC1=O [Example 26, (5R)-3-[[6-[3-(Difluoromethoxy)-4-fluoro-phenyl]-3-methyl-pyrazin-2-yl]methyl]-5-methyl-oxazolidin-2-one]
13 | 29 | C[C@@H]1CN(Cc2cncc(-c3ccc(F)c(C(F)F)c3)n2)C(=O)O1 [Example 5, (5R)-3-[[6-[3-(Difluoromethyl)-4-fluoro-phenyl]pyrazin-2-yl]methyl]-5-methyl-oxazolidin-2-one]
14 | 388 | Cc1ncc(-c2ccc(F)c(OC(F)F)c2)nc1CN1C(=O)OC[C@@H]1C [Example 25, (4S)-3-[[6-[3-(Difluoromethoxy)-4-fluoro-phenyl]-3-methyl-pyrazin-2-yl]methyl]-4-methyl-oxazolidin-2-one]
15 | 29 | C[C@@H]1CN(Cc2cncc(-c3ccc(F)c(OC(F)F)c3)n2)C(=O)O1 [Example 20, (5R)-3-[[6-[3-(Difluoromethoxy)-4-fluoro-phenyl]pyrazin-2-yl]methyl]-5-methyl-oxazolidin-2-one]
16 | 669 | CC1(C)CN(Cc2cncc(-c3ccc(Cl)c(OC(F)F)c3)n2)C(=O)O1 [Example 30, 3-[[6-[4-Chloro-3-(difluoromethoxy)phenyl]pyrazin-2-yl]methyl]-5,5-dimethyl-oxazolidin-2-one]
17 | 105 | CC(F)(F)c1cccc(-c2cncc(CN3CCCOC3=O)n2)c1 [Example 42, 3-[[6-[3-(1,1-Difluoroethyl)phenyl]pyrazin-2-yl]methyl]-1,3-oxazinan-2-one]
18 | 45 | Cc1ncc(-c2ccc(F)c(C(F)F)c2)nc1CN1C[C@@H](C)OC1=O [Example 13, (5R)-3-[[6-[3-(Difluoromethyl)-4-fluoro-phenyl]-3-methyl-pyrazin-2-yl]methyl]-5-methyl-oxazolidin-2-one]

target: T2, human GluN1/GluN2B NMDA receptors (Homo sapiens, UniProt Q05586+Q13224); test: as above; type: cell-based; conditions: glutamate ~EC40, 10 μM glycine, stable cell line with Tet-On induced expression
T2 construct: expressed in transfected cells
T2 sequence (Q13224 27-1484, other chains not shown): as above
Method: as §1, §2

Row | IC50 [nM] | SMILES
19 | 1390 | CN(C)C(=O)C1CN(Cc2cncc(-c3ccc(Cl)c(OC(F)F)c3)n2)C(=O)O1 (racemic) [Example 55, (R/S)-3-[[6-[4-Chloro-3-(difluoromethoxy)phenyl]pyrazin-2-yl]methyl]-N,N-dimethyl-2-oxo-oxazolidine-5-carboxamide]
20 | 5740 | O=C1OC(C(=O)N2CCC2)CN1Cc1cncc(-c2ccc(F)c(OC(F)F)c2)n1 (racemic) [Example 61, (R/S)-5-(Azetidine-1-carbonyl)-3-[[6-[3-(difluoromethoxy)-4-fluoro-phenyl]pyrazin-2-yl]methyl]oxazolidin-2-one]
21 | 141 | CN(C)C(=O)C1CN(Cc2cncc(-c3ccc(F)c(OC(F)F)c3)n2)C(=O)O1 (racemic) [Example 66, (R/S)-3-[[6-[3-(Difluoromethoxy)-4-fluoro-phenyl]pyrazin-2-yl]methyl]-N,N-dimethyl-2-oxo-oxazolidine-5-carboxamide]
22 | > 3000 | CN(C)C(=O)C1CN(Cc2cncc(-c3ccc(F)c(C(F)F)c3)n2)C(=O)O1 (racemic) [Example 65, (R/S)-3-[[6-[3-(Difluoromethyl)-4-fluoro-phenyl]pyrazin-2-yl]methyl]-N,N-dimethyl-2-oxo-oxazolidine-5-carboxamide]
23 | > 3000 | CNC(=O)C1CN(Cc2cncc(-c3ccc(F)c(C(C)(F)F)c3)n2)C(=O)O1 (racemic) [Example 63, (R/S)-3-[[6-[3-(1,1-Difluoroethyl)-4-fluoro-phenyl]pyrazin-2-yl]methyl]-N-methyl-2-oxo-oxazolidine-5-carboxamide]
24 | 3680 | CN(C)C(=O)C1CN(Cc2cncc(-c3ccc(F)c(C(C)(F)F)c3)n2)C(=O)O1 (racemic) [Example 62, (R/S)-3-[[6-[3-(1,1-Difluoroethyl)-4-fluoro-phenyl]pyrazin-2-yl]methyl]-N,N-dimethyl-2-oxo-oxazolidine-5-carboxamide]
25 | 5390 | CNC(=O)C1CN(Cc2cncc(-c3ccc(F)c(OC(F)F)c3)n2)C(=O)O1 (racemic) [Example 60, (R/S)-3-[[6-[3-(Difluoromethoxy)-4-fluoro-phenyl]pyrazin-2-yl]methyl]-N-methyl-2-oxo-oxazolidine-5-carboxamide]
26 | 2050 | CNC(=O)C1CN(Cc2cncc(-c3ccc(Cl)c(OC(F)F)c3)n2)C(=O)O1 (racemic) [Example 56, (R/S)-3-[[6-[4-Chloro-3-(difluoromethoxy)phenyl]pyrazin-2-yl]methyl]-N-methyl-2-oxo-oxazolidine-5-carboxamide]
27 | > 3000 | CC(F)(F)c1cc(-c2cncc(CN3CC(C(=O)N4CCC4)OC3=O)n2)ccc1F (racemic) [Example 64, (R/S)-5-(Azetidine-1-carbonyl)-3-[[6-[3-(1,1-difluoroethyl)-4-fluoro-phenyl]pyrazin-2-yl]methyl]oxazolidin-2-one]
28 | > 3000 | O=C1OC(C(=O)N2CCC2)CN1Cc1cncc(-c2ccc(F)c(C(F)F)c2)n1 (racemic) [Example 58, (R/S)-5-(Azetidine-1-carbonyl)-3-[[6-[3-(difluoromethyl)-4-fluoro-phenyl]pyrazin-2-yl]methyl]oxazolidin-2-one]
